Results on seven compounds are retold here after patent publication US20250115941A1, “Exposure device for exposing microorganisms to gaseous pollutants and detection system thereof” (priority 2023, published 2025).

In data set [1] the test system is Vibrio fischeri. The experiment in a line: Acute toxicity exposure experiments of VOCs in a liquid state (conventional method). It counts as cell-based. Particulars: for IC50: Aliivibrio fischeri.
Data set [2] has as its system Vibrio fischeri. As to the kind of experiment: Acute toxicity of gaseous VOCs to hydrogel-microsphere-fixed Vibrio fischeri in exposure chamber (luminescence change). It counts as cell-based. The conditions noted are these: for IC50: Aliivibrio fischeri; for IC50 (15 min) Ratio: liquid IC50 / gaseous IC50, 15 min; for IC50 (30 min) Ratio: liquid IC50 / gaseous IC50, 30 min; for IC50 (45 min) Ratio: liquid IC50 / gaseous IC50, 45 min; for IC50 (60 min) Ratio: liquid IC50 / gaseous IC50, 60 min; for minimum detection limit: no pre-concentration. How it is done:
A method for using the exposure device for exposing microorganisms to gaseous pollutants provided in the present application includes steps as follows: • (1) preparing the hydrogel microspheres with microorganisms: culturing microorganisms in a culture medium dissolved with 1.5% of sodium alginate for 3 h to 4 h, and after OD600 is greater than 0.1, uniformly dripping the microorganisms into a 1.5% calcium chloride solution through a peristaltic pump at a rate of 1.5 ml/min to obtain the hydrogel microspheres with microorganisms; taking out and placing the hydrogel microspheres in a culture medium for use; • (2) sequentially loading the hydrogel microspheres fixed with microorganisms in the multi-well exposure tray according to a detection requirement, and detecting an initial intensity of fluorescent signals of the hydrogel microspheres fixed with microorganisms; • (3) fixing the multi-well exposure tray to a lower end of the vertical pipe of the T-shaped air flow-mixing pipe through threads, and connecting the pressurizing air outlet pipe to the T-shaped air flow-mixing pipe, wherein silicone seal gaskets are mounted at all threaded connections to ensure leakproofness of the exposure device; • (4) placing the exposure device in an in-situ multi-toxicity endpoint detection system for VOCs or an in-situ multi-toxicity endpoint detection system for atmospheric particulate matter to make the gaseous pollutants enter the exposure device through the first and second depressurizing air inlet pipes at a flow rate ranging from 0.3 L/min to 2.0 L/min; and • (5) continuously introducing the gaseous pollutants for 15 min to 60 min, and then introducing clean air for 8 min to 10 min to completely replace the gaseous pollutants in the detection system; removing the multi-well exposure tray, and sequentially placing the hydrogel microspheres in the multi-well exposure tray into a 96 well plate, and detecting a final intensity of fluorescent signals of the hydrogel microspheres fixed with microorganisms in the plurality of channels by using a microplate reader to obtain an intensity change of fluorescent signals.
A commercial VOCs generator is used to accurately generate seven different VOCs with nine gradient concentrations, involving aldehydes (formaldehyde and acetaldehyde), pyridines (pyridine), alcohols (n-butyl alcohol), acyls and ketones (acetylacetone), benzenes, and phenols (phenol). Natural luminescent bacteria Vibrio fischeri as a target, is fixed by using hydrogel microspheres, and is arranged in an exposure chamber. VOCs are sequentially introduced into the exposure chamber at a flow rate of 0.5 L/min. After exposure for 15 min, 30 min, 45 min, and 60 min, Vibrio fischeri is taken out, and intensity change of fluorescent signals of Vibrio fischeri are measured by using a microplate reader. Concentration-acute toxicity curves of the gaseous pollutant comprising different VOCs and mixed VOCs are fitted by using analysis software, to obtain the IC50 value of acute toxicity of the gaseous pollutants.

The subject of data set [3] is Vibrio fischeri. The conditions noted are these: concentration ratio 10 times.
Source text: (1) According to a detection requirement in this embodiment, the quantity of the multi-well exposure tray that need to be loaded is 1, and only one type of the hydrogel microspheres fixed with natural fluorescent microorganisms Vibrio fischeri is provided, and the quantity of hydrogel microspheres fixed with microorganisms that need to be used is 60. An initial fluorescence intensity of each hydrogel microsphere is detected and recorded, and the hydrogel microspheres are placed in the multi-well exposure tray, the multi-well exposure tray is loaded into the exposure device, and the detection system is sealed. […]
(4) The system-controlled vacuum pump at the distal end of the detection system and the vacuum pump of the gas circulation device are turned on, and the concentrated VOCs is introduced into the exposure device at 0.5 L/min, wherein exposure is set to last 15 min, 30 min, 45 min, and 60 min; and stability of the flowmeter of the gas circulation device and the system-controlled flowmeter at the distal end of the detection system during the process is monitored.
(5) After exposure to VOCs is completed, a microplate reader is used to measure final fluorescence intensity of each hydrogel microsphere, and changes of the initial fluorescence intensity and the final fluorescence intensity are obtained.
Data set [4] relates to recombined Escherichia coli carrying plasmids with different gene pathway. The experiment in a line: Genotoxicity of gaseous dimethyl sulfate with the in-situ multi-toxicity endpoint detection system for VOCs (Embodiment 1). Particulars: exposure 20-500 mg/m^3, 15 min, 0.5 L/min.
Procedure: Embodiment 1: Genotoxicity of an artificial gaseous pollutant (dimethyl sulfate) is detected by using the in-situ multi-toxicity endpoint detection system for volatile organic compounds (VOCs) constructed in the present application. Specific steps are as follows:
In this embodiment, a Tenax TA multi-well polymer adsorbent is selected as the adsorption material to be filled in an adsorber of the atmospheric pre-concentrator, and a mixed liquid of 50% of ethanol and 50% of pure water is added to the gas-washing bottle and the high-temperature steam generator.
(2) According to a detection requirement in this embodiment, the quantity of the multi-well exposure tray that need to be loaded is 6, 29 types of hydrogel microspheres fixed with recombined Escherichia coli carrying plasmids with different gene pathway are provided, and the quantity of each type of hydrogel microspheres fixed with microorganisms that need to be used is 15. An initial fluorescence intensity of each hydrogel microsphere is detected and recorded, and the hydrogel microspheres are placed in the multi-well exposure tray, the multi-well exposure tray is loaded into the exposure device, and the detection system is sealed. […]
Where [5] appears, read: 0.25 h, 15 min, read-out: IC50 (15 min) Liquid.
Setting [6] is: 0.5 h, 30 min, read-out: IC50 (30 min) Liquid.
The mark [7] stands for this setting: 0.75 h, 45 min, read-out: IC50 (45 min) Liquid.
Setting [8] is: 1 h, 60 min, read-out: IC50 (60 min) Liquid.
[9] abbreviates: 0.25 h, gaseous exposure, 15 min, 0.5 L/min, read-out: IC50 (15 min) Gaseous.
Setting [10] is: 0.5 h, gaseous exposure, 30 min, 0.5 L/min, read-out: IC50 (30 min) Gaseous.
Setting [11] is: 0.75 h, gaseous exposure, 45 min, 0.5 L/min, read-out: IC50 (45 min) Gaseous.
[12] abbreviates: 1 h, gaseous exposure, 60 min, 0.5 L/min, read-out: IC50 (60 min) Gaseous.

Molecules are shown by their SMILES. Values after ≈ are worked out from the molar mass of the structure shown. Where a name gives a salt, the structure may show the parent alone.

As for `CC=O` [Acetaldehyde], the IC50 (commonly the concentration at which inhibition is half-maximal) in the data set with Vibrio fischeri [1] (setting [5]) was 640 µg/mL (≈ 14500 µM); in the data set with Vibrio fischeri [1] (setting [6]), 580 µg/mL (≈ 13200 µM); in the data set with Vibrio fischeri [1] (setting [7]) it was 580 µg/mL (≈ 13200 µM); in the data set on Vibrio fischeri [1] (setting [8]), 600 µg/mL (≈ 13600 µM); in the data set on Vibrio fischeri [2] (setting [9]), 2.12 µg/mL (≈ 48.1 µM); in the data set on Vibrio fischeri [2] (setting [10]), 1.29 µg/mL (≈ 29.3 µM). The IC50 in the data set with Vibrio fischeri [2] (setting [11]) is 0.83 µg/mL (≈ 18.8 µM); in the data set with Vibrio fischeri [2] (setting [12]), 0.49 µg/mL (≈ 11.1 µM). The “IC50 (15 min) Ratio” value in the data set with Vibrio fischeri [2] was 302. In addition, in the data set with Vibrio fischeri [2], the “IC50 (30 min) Ratio” value was determined as 450. In the data set with Vibrio fischeri [2], the “IC50 (45 min) Ratio” value was found to be 699. The “IC50 (60 min) Ratio” value in the data set on Vibrio fischeri [2] was 1224.
For the compound `CC(=O)CC(C)=O` [Acetylacetone], the IC50 was 280 µg/mL (≈ 2800 µM) with Vibrio fischeri [1] (setting [5]); 250 µg/mL (≈ 2500 µM) in the data set on Vibrio fischeri [1] (setting [6]); 310 µg/mL (≈ 3100 µM) in the data set with Vibrio fischeri [1] (setting [7]); 250 µg/mL (≈ 2500 µM) in the data set on Vibrio fischeri [1] (setting [8]); 0.28 µg/mL (≈ 2.8 µM) with Vibrio fischeri [2] (setting [9]); 0.19 µg/mL (≈ 1.9 µM) in the data set with Vibrio fischeri [2] (setting [10]). Moreover, the IC50 in the data set with Vibrio fischeri [2] (setting [11]) came out at 0.13 µg/mL (≈ 1.3 µM); in the data set with Vibrio fischeri [2] (setting [12]), 0.11 µg/mL (≈ 1.1 µM). In addition, in the data set with Vibrio fischeri [2], the “IC50 (15 min) Ratio” value was 1000. The “IC50 (30 min) Ratio” value with Vibrio fischeri [2] is 1316. In addition, the “IC50 (45 min) Ratio” value in the data set with Vibrio fischeri [2] is listed as 2385. For the same compound, the “IC50 (60 min) Ratio” value with Vibrio fischeri [2] is given as 2273.
Consider `C=O` [Formaldehyde], for which the IC50 with Vibrio fischeri [1] (setting [5]) is 16.3 µg/mL (≈ 544 µM); in the data set on Vibrio fischeri [1] (setting [6]), 15.6 µg/mL (≈ 521 µM); in the data set with Vibrio fischeri [1] (setting [7]) it was 15.4 µg/mL (≈ 514 µM); in the data set with Vibrio fischeri [1] (setting [8]), 14.8 µg/mL (≈ 492 µM); in the data set on Vibrio fischeri [2] (setting [9]), 0.00481 µg/mL (≈ 0.16 µM); with Vibrio fischeri [2] (setting [10]), 0.00234 µg/mL (≈ 0.0779 µM). Besides, the IC50 worked out at 0.00181 µg/mL (≈ 0.0603 µM) in the data set on Vibrio fischeri [2] (setting [11]) and 0.00129 µg/mL (≈ 0.043 µM) in the data set with Vibrio fischeri [2] (setting [12]). In the data set with Vibrio fischeri [3], the “minimum detection limit at concentration ratio of 10 times” value was found to be 0.13 mg/m^3. In the data set on Vibrio fischeri [2] (gaseous exposure), this compound registered a minimum detection limit of 1.3 mg/m^3. Further, in the data set with Vibrio fischeri [2], the “IC50 (15 min) Ratio” value worked out at 3395. Moreover, in the data set on Vibrio fischeri [2], the “IC50 (30 min) Ratio” value was determined as 6684. Besides, the “IC50 (45 min) Ratio” value in the data set on Vibrio fischeri [2] is 8519. Further, in the data set on Vibrio fischeri [2], the “IC50 (60 min) Ratio” value amounted to 11457.
Regarding `CCCCO` [N-butyl alcohol], the “IC50 (15 min) Liquid” value in the data set with Vibrio fischeri [1] (15 min) turned out to be 1790 µg/mL (≈ 24100 µM). Also, in the data set on Vibrio fischeri [1] (30 min), the “IC50 (30 min) Liquid” value was 1840 µg/mL (≈ 24800 µM). Moreover, in the data set on Vibrio fischeri [1] (45 min), the “IC50 (45 min) Liquid” value worked out at 1840 µg/mL (≈ 24800 µM). In addition, in the data set on Vibrio fischeri [1] (60 min), the “IC50 (60 min) Liquid” value was 1850 µg/mL (≈ 25000 µM). Also, in the data set on Vibrio fischeri [2] (gaseous exposure, 15 min, 0.5 L/min), the “IC50 (15 min) Gaseous” value worked out at 1.05 µg/mL (≈ 14.2 µM). For the same compound, the “IC50 (30 min) Gaseous” value in the data set on Vibrio fischeri [2] (gaseous exposure, 30 min, 0.5 L/min) amounted to 0.73 µg/mL (≈ 9.85 µM). For the same compound, the “IC50 (45 min) Gaseous” value in the data set on Vibrio fischeri [2] (gaseous exposure, 45 min, 0.5 L/min) was determined as 0.53 µg/mL (≈ 7.15 µM). Also, the “IC50 (60 min) Gaseous” value with Vibrio fischeri [2] (gaseous exposure, 60 min, 0.5 L/min) was found to be 0.40 µg/mL (≈ 5.4 µM). Besides, in the data set on Vibrio fischeri [2], the “IC50 (15 min) Ratio” value is reported as 1705, the “IC50 (30 min) Ratio” value is 2521, the “IC50 (45 min) Ratio” value stood at 3472 and the “IC50 (60 min) Ratio” value is listed as 4625.
As for `Oc1ccccc1` [Phenol], the half-inhibitory concentration (IC50) in the data set on Vibrio fischeri [1] (setting [5]) amounted to 270 µg/mL (≈ 2870 µM); with Vibrio fischeri [1] (setting [6]), 290 µg/mL (≈ 3080 µM); in the data set on Vibrio fischeri [1] (setting [7]) it was 320 µg/mL (≈ 3400 µM); with Vibrio fischeri [1] (setting [8]) it was 320 µg/mL (≈ 3400 µM); with Vibrio fischeri [2] (setting [9]), 0.0689 µg/mL (≈ 0.732 µM); with Vibrio fischeri [2] (setting [10]), 0.0363 µg/mL (≈ 0.386 µM). Besides, the values for the IC50 in the data set on Vibrio fischeri [2] (setting [11]) and in the data set with Vibrio fischeri [2] (setting [12]) were 0.028 µg/mL (≈ 0.298 µM) and 0.0202 µg/mL (≈ 0.215 µM), respectively. For the same compound, in the data set with Vibrio fischeri [3], the “minimum detection limit at concentration ratio of 10 times” value was 2.03 mg/m^3. The compound also displayed a minimum detection limit in the data set on Vibrio fischeri [2] (gaseous exposure) of 20.31 mg/m^3. Besides, in the data set with Vibrio fischeri [2], the “IC50 (15 min) Ratio” value came to 3921. Besides, the “IC50 (30 min) Ratio” value in the data set with Vibrio fischeri [2] came out at 7991. Moreover, the “IC50 (45 min) Ratio” value in the data set with Vibrio fischeri [2] is 11424. The “IC50 (60 min) Ratio” value in the data set on Vibrio fischeri [2] turned out to be 15818.
As for `c1ccncc1` [Pyridine], the IC50 was found to be 1020 µg/mL (≈ 12900 µM) in the data set on Vibrio fischeri [1] (setting [5]); 1080 µg/mL (≈ 13700 µM) in the data set with Vibrio fischeri [1] (setting [6]); 1140 µg/mL (≈ 14400 µM) with Vibrio fischeri [1] (setting [7]); 1250 µg/mL (≈ 15800 µM) with Vibrio fischeri [1] (setting [8]); 1.5 µg/mL (≈ 19 µM) in the data set with Vibrio fischeri [2] (setting [9]); 1.25 µg/mL (≈ 15.8 µM) with Vibrio fischeri [2] (setting [10]). Besides, the results for the IC50 in the data set on Vibrio fischeri [2] (setting [11]) and in the data set on Vibrio fischeri [2] (setting [12]) were 0.88 µg/mL (≈ 11.1 µM) and 0.5 µg/mL (≈ 6.32 µM), respectively. In addition, the “IC50 (15 min) Ratio” value with Vibrio fischeri [2] stood at 680. Besides, the “IC50 (30 min) Ratio” value in the data set on Vibrio fischeri [2] was found to be 864. Besides, the “IC50 (45 min) Ratio” value with Vibrio fischeri [2] is 1295. Also, the “IC50 (60 min) Ratio” value in the data set on Vibrio fischeri [2] amounted to 2500.
Take `COS(=O)(=O)OC` [dimethyl sulfate]: in data set [4], the “gene pathways significantly upregulated (of 29 key gene pathways)” value was “Nine of these gene pathways are significantly upregulated”; the “genotoxicity / toxicity effects indicated” value was “may cause inhibition of cell division, oxidative stress, protein stress, and severe DNA damage, mutation, and recombination”.
